# According to patent US12070458B2, “Therapeutic agent composition and method of use, for treatment of mild congnitive impairment, depression, and psychological disorders” (priority 2018, dated 2024):
# System: immobility behavior
# Experiment: Mouse Forced Swim Test (mFST)
# Format: in vivo, mice
# Details: 1 mg/Kg i.v. thirty minutes before swim session
# Method: Forced Swim Test (FST) is an animal model used to assess antidepressant compounds in preclinical studies. The FST was performed similar to the method of Porsolt et al. with modifications (Porsolt R D, Bertin A, Jalfre M. Behavioral despair in mice: a primary screening test for antidepressants. Arch Int Pharmacodyn Thér 1977; 229:327-36).
# In this experiment, mice are forced to swim in an inescapable cylinder filled with water. Under these conditions, mice will initially try to escape and eventually develop immobility behavior; this behavior is interpreted as a passive stress-coping strategy or depression-like behavior. Swim tanks were positioned inside a box made of plastic. […] The duration of immobility was evaluated during the total 6 min of the test and expressed as duration (sec) of immobility. […]
# In order to avoid the risk of obtaining the false positive\negative effects in the FST caused by a possible influence of the tested drugs on the locomotor activity, spontaneous locomotor activity was measured using an animal activity meter Opto-Varimex-4 Auto-Track (Columbus Instruments, USA). […] Spontaneous locomotor activity was evaluated between the 2nd and the 6th min, which corresponds with the time interval analysed in the FST. […]
# Drug levels were 215 nM in the plasma. The NR2B receptor occupancy was determined to be 68%.
smiles,measurement,value
"O=C1NCC(=O)N2CCC[C@@H]12 [cPG, cyclic Prolyl Glycine]",immobility time,statistically significant decrease
